Results on 3 compounds are retold here after patent publication US8778896B2, “Levoisovalerylspiramycin I, II or III, preparations, preparation methods and uses thereof” (Shenyang Tonglian Group Co., Ltd., priority 2010, dated 2014).

Each structure is given as a SMILES string. Values after ≈ are worked out from the molar mass of the structure shown.

For series [1], the system named is hemophilus influenzae (37). Briefly: Clinical isolates, agar double dilution method. The series is classed as cell-based. Conditions: 37 clinical isolates of hemophilus influenzae; for MIC50 / MIC90: Haemophilus influenzae; for MIC50: read-out: MIC50; for MIC90: read-out: MIC90.
For series [2], the system named is enterococcus32. Briefly: MIC against the infecting test organism. The settings on record: Enterococcus, read-out: MIC. The series is classed as cell-based, enterococcus.
The subject of a further series is enterococcus (106). Briefly: Clinical isolates, agar double dilution method. The series is classed as cell-based. Conditions: 106 clinical isolates of enterococcus; for MIC50: read-out: MIC50; for MIC90: read-out: MIC90.
The next series concerns staphylococcus aureus21. Briefly: MIC against the infecting test organism. The series is classed as cell-based, staphylococcus aureus. Conditions: read-out: MIC.
The subject of series [3] is Chlamydia Pneumoniae CWL-029. The series can be described thus: Chlamydia in vitro MIC, HEp-2 cells, immunofluorescence. The series is classed as cell-based. The settings on record: Chlamydia pneumoniae, 72 h, Chlamydia Pneumoniae CWL-029, HEp-2 cells, read-out: MIC.
For series [4], the system named is enterococcus32. The series can be described thus: Curative effect on mouse with abdominal infection (ED50). The series is classed as in vivo, enterococcus. The settings on record: Enterococcus, 168 h, enterococcus32, challenging dose 5.4 × 10^4 CFU/0.5 ml, deaths in 7 days, Bliss, read-out: ED50. The protocol:
(§1) Test method: preparation of infection bacterial liquid: taking out the test bacterial liquid which is kept in a refrigerator at −80[…] to room temperature for about 1 h, then inoculating streptococcus pneumonia, pyogenic streptococcus and enterococcus absorbing 0.1 ml bacterial liquid respectively to 2 ml MH broth (add 10% inactivated horse serum), and inoculating 0.1 ml bacterial liquid of staphylococcus aureus to 2 ml MH broth according to the same method above; putting it in an incubator at 37[…] to be cultivated for 18 h, to obtain original bacterial liquid; diluting the original bacterial liquid with 5% gastric mucin to make animals infected with 100% lethal bacteria, to obtain infection bacterial liquid.
(§2) The clinical route of administration of carrimycin is proposed to be oral administration, thus intragastric administration is adopted in carrimychin test. Levoisovalerylspiramycin I (obtained in Embodiment 1) and of crystalline compound of levoisovalerylspiramycin I (prepared in Embodiment 27) are fed to animals via […].
(§3) After the mice are infected, respectively feed each mouse 0.2 ml via intragastric administration at 0.5 to 6 h, and they have no adverse reaction. Observe the number of deaths in 7 days, and calculate the 50% effective dose (ED50) of each drug for the infected mouse and compare the protective effect of drugs by Bliss program.

Series [5] has as its system pyogenic streptococcus (93). Briefly: Clinical isolates, agar double dilution method. The series is classed as cell-based. The settings on record: 93 clinical isolates of pyogenic streptococcus; for MIC50: read-out: MIC50; for MIC90: read-out: MIC90.
For series [6], the system named is pyogenic streptococcus 119. Briefly: MIC against the infecting test organism. The series is classed as cell-based. The settings on record: read-out: MIC.
In series [7] the test system is streptococcus pneumoniae57. Briefly: Curative effect on mouse with abdominal infection (ED50). The series is classed as in vivo, streptococcus pneumoniae. Conditions: Streptococcus, 168 h, streptococcus pneumoniae57, challenging dose 8.8 × 10^4 CFU/0.5 ml, deaths in 7 days, Bliss, read-out: ED50. As to the method:
as §1, §2, §3

The subject of series [8] is streptococcus pneumoniae18. The series is described as above. The series is classed as in vivo, streptococcus pneumoniae. Conditions: Streptococcus, 168 h, streptococcus pneumoniae18, challenging dose 9.6 × 10^4 CFU/0.5 ml, deaths in 7 days, Bliss, read-out: ED50. As to the method:
as §1, §2, §3

In series [9] the test system is streptococcus pneumoniae3. The series is described as above. The series is classed as in vivo, streptococcus pneumoniae. The settings on record: Streptococcus, 168 h, streptococcus pneumoniae3, challenging dose 6.4 × 10^4 CFU/0.5 ml, deaths in 7 days, Bliss, read-out: ED50. The protocol:
as §1, §2, §3

Another series relates to staphylococcus aureus16. The series can be described thus: MIC against the infecting test organism. The settings on record: read-out: MIC. The series is classed as cell-based, staphylococcus aureus.
The test system of series [10] is adult acute respiratory infections caused by sensitive bacteria. Briefly: Clinical test versus Azithromycin, multi-center random double blind. The series is classed as in vivo. The settings on record: patients 18 to 65 years. The protocol: Adopt a multi-center, random, two blind, double simulation control test, which is carried out in 5 hospitals concurrently according to the unified clinical testing program.
1. Patients from 18 to 65 years old (men and women);
2. Sensitive acute respiratory infections caused by sensitive bacteria include acute bacterial pharyngitis, acute suppurative tonsillitis, acute tracheobronchitis, mild pneumonia and acute nasosinusitis etc;
3. Any subject shall sign an informed consent before being selected.
4. All subjects shall be contracepted in the research period and within at least 3 months upon being dosed.
1. Those with hepatic or renal insufficiency (Blood Cr>1.5 mg/dl and ALT>normal upper limit)
2. The women in pregnancy or lactation
3. Those with gastrointestinal tract diseases, who cannot take drugs orally.
4. Those who take antibacterial within one week before the selection.
According to statistics on the test results by statistics experts, the clinical efficacy (FAS) is: […]

Series [11] deals with pyogenic streptococcus 102. Briefly: MIC against the infecting test organism. The series is classed as cell-based. Conditions: read-out: MIC.
In series [12] the test system is streptococcus pneumoniae57. Briefly: MIC against the infecting test organism. The series is classed as cell-based, streptococcus pneumoniae. Conditions: read-out: MIC.
In series [13] the test system is Mycoplasma Urealyticum and Mycoplasma Pneumoniae strains. The series can be described thus: Mycoplasma in vitro MIC (U-PPLO broth). The series is classed as cell-based. Conditions: for MIC: Mycoplasma, determined 4 times, final MIC (24 h), read-out: MIC; for Uu resistant effect: in words. As to the method: 1. Test methods: adding U-PPLO 0.8 ml to each pore of aseptic 12-pore cell culture plate (adding 0.9 ml to inoculum control pore and 1.0 ml to medium control pore).
2. Add 10^4CCU/ml Uu inoculum 0.1 ml to each experimental pore. The final dose in the pore is 10^3CCU/ml (the medium control pore will not be added with inoculum).
3. Divide into 3 groups (100 μg/ml, 10 μg/ml and 1 μg/ml antibiotic stock solution), Use aseptic Tip to add antibiotic for test to each pore: 100 μl, 50 μl, 25 μl, 12.5 μl according to the double degradation concentration gradient. (The inoculum and medium control pores will not be added with the antibiotic, and meanwhile the antibiotic control pore is arranged.)
4. Blend all pores evenly. Seal the culture plate by tapes and place it in a 37[…] box for culture.
5. On 17-24 hours after the test, observe and record the Uu growth situation. When Uu inoculum control pore presents a positive growth, the minimal antibiotic concentration, which can suppress the growth of Uu, is the MIC of sample.

For series [14], the system named is pyogenic streptococcus 119. The series can be described thus: Curative effect on mouse with abdominal infection (ED50). The series is classed as in vivo. Conditions: Streptococcus, 119, 168 h, pyogenic streptococcus 119, challenging dose 4.9 × 10^4 CFU/0.5 ml, deaths in 7 days, Bliss, read-out: ED50. As to the method:
as §1, §2, §3

Series [15] relates to pyogenic streptococcus 102. Described as above. The series is classed as in vivo. The settings on record: Streptococcus, 102, 168 h, pyogenic streptococcus 102, challenging dose 7.8 × 10^4 CFU/0.5 ml, deaths in 7 days, Bliss, read-out: ED50. The protocol:
as §1, §2, §3

Series [16] deals with pyogenic streptococcus 772. The series is described as above. The series is classed as in vivo. The settings on record: Streptococcus, 772, 168 h, pyogenic streptococcus 772, challenging dose 6.9 × 10^3 CFU/0.5 ml, deaths in 7 days, Bliss, read-out: ED50. As to the method:
as §1, §2, §3

One may read the MIC as the lowest concentration found to suppress growth. The ED50 is the midpoint of the dose-response relation. `COC1C(O)CC(=O)OC(C)C/C=C/C=C/C(OC2CCC(N(C)C)C(C)O2)C(C)CC(CC=O)C1OC1OC(C)C(OC2CC(C)(O)C(OC(=O)CC(C)C)C(C)O2)C(N(C)C)C1O` (centres unmarked) [Levoisovalerylspiramycin I, levoisovalerylspiramycin I] registered an MIC range in series [1] of 0.03 to 32 µg/mL. Moreover, the results for the MIC50 (in [1]; in the series with enterococcus (106); in series [5]) were 0.12 µg/mL (≈ 0.129 µM), 1 µg/mL (≈ 1.08 µM) and 0.25 µg/mL (≈ 0.27 µM), respectively. Besides, the figures for the MIC90 (in series [1]; in the series on enterococcus (106); in series [5]) were 1 µg/mL (≈ 1.08 µM), 32 µg/mL (≈ 34.5 µM) and 32 µg/mL (≈ 34.5 µM), respectively. In addition, the MIC with enterococcus32 [2] was found to be 0.5 µg/mL (≈ 0.539 µM); with staphylococcus aureus21, 0.5 µg/mL (≈ 0.539 µM); in series [3], 0.016 µg/mL (≈ 0.0173 µM); in [6], 0.12 µg/mL (≈ 0.129 µM); in the series on staphylococcus aureus16 it was 0.5 µg/mL (≈ 0.539 µM); in [11], 0.12 µg/mL (≈ 0.129 µM). In addition, the MIC is 0.06 µg/mL (≈ 0.0647 µM) in series [12] and 0.025 to 0.125 µg/mL (≈ 0.027 to 0.135 µM) in [13]. In addition, the ED50 in the series on enterococcus32 [4] was determined as 77.5 mg/kg; in [7] it was 13.9 mg/kg; in series [8], 9.51 mg/kg; in series [9] it was 9.73 mg/kg; in series [14], 57.2 mg/kg; in [15], 66.4 mg/kg. For the same compound, the ED50 in series [16] came to 26.1 mg/kg. Besides, in series [10], the adverse reaction amounted to 2.5%. Also, the clearance of pathogens in series [10] amounted to 97.56%. The “clinical efficacy (FAS)” value in [10] is 92.30%. In [13], the Uu resistant effect entry is recorded as “favorable Uu resistant effect”.

Consider `CC[C@H]1OC(=O)[C@H](C)[C@@H](O[C@H]2C[C@@](C)(OC)[C@@H](O)[C@H](C)O2)[C@H](C)[C@@H](O[C@@H]2O[C@H](C)C[C@H](N(C)C)[C@H]2O)[C@](C)(O)C[C@@H](C)CN(C)[C@H](C)[C@@H](O)[C@]1(C)O` [azithromycin, reference compound], for which the MIC50 in [1] stood at 0.25 µg/mL (≈ 0.334 µM); with enterococcus (106), 8 µg/mL (≈ 10.7 µM); in [5], 0.5 µg/mL (≈ 0.668 µM). The figures for the MIC90 (in series [1]; with enterococcus (106); in [5]) were 2 µg/mL (≈ 2.67 µM), over 64 µg/mL and over 64 µg/mL, respectively. In addition, the minimum inhibitory concentration (MIC) was 1 µg/mL (≈ 1.34 µM) with enterococcus32 [2]; 4 µg/mL (≈ 5.34 µM) with staphylococcus aureus21; 0.032 µg/mL (≈ 0.0427 µM) in [3]; 0.25 µg/mL (≈ 0.334 µM) in [6]; 0.5 µg/mL (≈ 0.668 µM) with staphylococcus aureus16; 0.5 µg/mL (≈ 0.668 µM) in [11]. Further, the MIC in series [12] came out at 0.12 µg/mL (≈ 0.16 µM). The ED50 worked out at 147 mg/kg with enterococcus32 [4]; 19 mg/kg in series [7]; 14.9 mg/kg in series [8]; 18.3 mg/kg in series [9]; 68.5 mg/kg in series [14]; 159 mg/kg in series [15]. Further, the ED50 in [16] amounted to 46.9 mg/kg. In series [10], this compound yielded an adverse reaction of 7.6%. Further, in series [10], the clearance of pathogens was found to be 92.86%. In [10], the “clinical efficacy (FAS)” value is 89.61%.

Regarding `CC[C@H]1OC(=O)[C@H](C)[C@@H](O[C@H]2C[C@@](C)(OC)[C@@H](O)[C@H](C)O2)[C@H](C)[C@@H](O[C@@H]2O[C@H](C)C[C@H](N(C)C)[C@H]2O)[C@](C)(O)C[C@@H](C)C(=O)[C@H](C)[C@@H](O)[C@]1(C)O` [erythrocin, reference compound], the figures for the MIC50 (in series [1]; in the series with enterococcus (106); in series [5]) were 0.06 µg/mL (≈ 0.0818 µM), 4 µg/mL (≈ 5.45 µM) and 0.5 µg/mL (≈ 0.681 µM), respectively. Also, the MIC90 is 32 µg/mL (≈ 43.6 µM) in series [1], over 64 µg/mL in the series on enterococcus (106) and over 64 µg/mL in series [5]. The MIC in the series on enterococcus32 [2] is 2 µg/mL (≈ 2.73 µM); with staphylococcus aureus21 it was 4 µg/mL (≈ 5.45 µM); in series [3] it was at most 0.016 µg/mL; in series [6], 0.5 µg/mL (≈ 0.681 µM); with staphylococcus aureus16 it was 1 µg/mL (≈ 1.36 µM); in series [11], 0.5 µg/mL (≈ 0.681 µM). The MIC in series [12] is 0.25 µg/mL (≈ 0.341 µM); in series [13] it was 5 µg/mL (≈ 6.81 µM). The ED50 is 175 mg/kg with enterococcus32 [4]; 102 mg/kg in series [7]; 57.1 mg/kg in [8]; 85.1 mg/kg in series [9]; 234 mg/kg in [14]; 361 mg/kg in series [15]. For the same compound, the ED50 in [16] is 101 mg/kg. The Uu resistant effect result in series [13] is reported as “poorest”.
